Tested on: yeast genes (level of expressed mRNA)
Experiment: DNA chip analysis of expressed mRNA of yeast genes after 2 h culture with a toxic chemical substance
Format: cell-based, Saccharomyces cerevisiae S288C
Description: Yeast (Saccharomyces cerevtisiae S288C (α SUC2mal mel gap2 CUP1)) were cultured at 25° C. on YPD medium (yeast extract 1%, polypepton 2%, glucose 2%). One of toxic chemical substances was added to the cell at logarithmic growth phase, and the cell was further cultured for two hours. Cell was cultured without any chemical substance in the same condition, and was used as control. Concentrations of the chemical substances were defined to inhibit the growth of the yeast but not lead to death.
After the completion of cultivation, the culture was centrifuged to collect the cells. To the cells, sodium acetate buffer (50 mM sodium acetate, 10 mM EDTA, 1% SDS) was added, and the mixture was shaken at 65° C. for five minutes, followed by returning to room temperature, and obtaining the supernatant, which procedure was repeated two times. To the supernatant, ½ amount of a solution of phenol/chloroform was added, and the mixture was centrifuged to give a supernatant, which was added with an equal amount of chloroform, and the mixture was centrifuged to give a supernatant. To the supernatant, an equal amount of isopropanol containing 0.3 M sodium acetate was added, and the mixture was allowed to stand at room temperature for 30 minutes, after which the mixture was centrifuged to give a sediment of the whole RNAs. Seventy % ethanol was added to the sediment, and the mixture was again centrifuged to give a sediment, which was then dried and dissolved in water. mRNA was isolated from the whole RNAs as followings. In view of the fact that a poly A chain is attached to the 3′ terminus of mRNA, a polynucleotide having a poly T structure which was immobilized on the surface of latex beads was used to trap the mRNA, and then the mRNA was washed and eluted with spine column (Oligotex-dT30<Super>mRNA Purification Kit, Takara). Reverse transcription of the mRNA was conducted with a reverse transcriptase (Super Script II Reverse Transcriptase; catalogue No. 18064-014, GibcoBRL) using fluorescence-labeled nucleotides to give cDNAs that were introduced with Cy3-dUTP or Cy5-dUTP during the reverse transcription.
The labeled cDNAs were dissolved in TE buffer (10 mM Tris-HCl/1 mM EDTA, pH8.0), and the solution was dropped on the DNA chip containing the whole genes of yeast (DNA Chip Research Inc. Japan) so that the cDNAs were hybridized on the DNA chip at 65° C. for over 12 hours. The fluoresces intensity of the DNA chip was read with a scanner, and the ratio relative to the fluorescence intensity resulting from the absence of chemical substance was estimated as the following, which is shown in Tables 1 to 9: [formula]
In the Tables, “Intensity” indicated in the rightmost column is a value of the level of expressed mRNA of each gene in control cells as divided by the average level of the expressions of the whole genes.

O=[N+]([O-])c1cc[n+]([O-])c2ccccc12 [(5), 4-nitroquinolin-N-oxide]
The level of expressed mRNA in the presence of chemical substance/The level of expressed mRNA in the absence of chemical substance (yeast gene YAR010C): 1.0
The level of expressed mRNA in the presence of chemical substance/The level of expressed mRNA in the absence of chemical substance (yeast gene YBL005W-A): 1.3
The level of expressed mRNA in the presence of chemical substance/The level of expressed mRNA in the absence of chemical substance (yeast gene YBL041W): 1.6
The level of expressed mRNA in the presence of chemical substance/The level of expressed mRNA in the absence of chemical substance (yeast gene YBL043W): 1.1
The level of expressed mRNA in the presence of chemical substance/The level of expressed mRNA in the absence of chemical substance (yeast gene YBL078C): 0.7
The level of expressed mRNA in the presence of chemical substance/The level of expressed mRNA in the absence of chemical substance (yeast gene YBR214W): 1.1
The level of expressed mRNA in the presence of chemical substance/The level of expressed mRNA in the absence of chemical substance (yeast gene YCL020W): 0.5
The level of expressed mRNA in the presence of chemical substance/The level of expressed mRNA in the absence of chemical substance (yeast gene YCL027W): 1.2
The level of expressed mRNA in the presence of chemical substance/The level of expressed mRNA in the absence of chemical substance (yeast gene YCR004C): 1.2
The level of expressed mRNA in the presence of chemical substance/The level of expressed mRNA in the absence of chemical substance (yeast gene YCR071C): 1.2
The level of expressed mRNA in the presence of chemical substance/The level of expressed mRNA in the absence of chemical substance (yeast gene YCR088W): 1.1
The level of expressed mRNA in the presence of chemical substance/The level of expressed mRNA in the absence of chemical substance (yeast gene YDL008W): 1.8
The level of expressed mRNA in the presence of chemical substance/The level of expressed mRNA in the absence of chemical substance (yeast gene YDL238C): 0.9
The level of expressed mRNA in the presence of chemical substance/The level of expressed mRNA in the absence of chemical substance (yeast gene YDR055W): 1.7
The level of expressed mRNA in the presence of chemical substance/The level of expressed mRNA in the absence of chemical substance (yeast gene YDR084C): 1.2
The level of expressed mRNA in the presence of chemical substance/The level of expressed mRNA in the absence of chemical substance (yeast gene YDR085C): 0.9
The level of expressed mRNA in the presence of chemical substance/The level of expressed mRNA in the absence of chemical substance (yeast gene YDR104C): 1.3
The level of expressed mRNA in the presence of chemical substance/The level of expressed mRNA in the absence of chemical substance (yeast gene YDR115W): 1.4
The level of expressed mRNA in the presence of chemical substance/The level of expressed mRNA in the absence of chemical substance (yeast gene YDR259C): 1.0
The level of expressed mRNA in the presence of chemical substance/The level of expressed mRNA in the absence of chemical substance (yeast gene YDR315C): 0.9
The level of expressed mRNA in the presence of chemical substance/The level of expressed mRNA in the absence of chemical substance (yeast gene YDR358W): 1.4
The level of expressed mRNA in the presence of chemical substance/The level of expressed mRNA in the absence of chemical substance (yeast gene YDR388W): 0.7
The level of expressed mRNA in the presence of chemical substance/The level of expressed mRNA in the absence of chemical substance (yeast gene YDR432W): 1.6
The level of expressed mRNA in the presence of chemical substance/The level of expressed mRNA in the absence of chemical substance (yeast gene YDR481C): 1.0
The level of expressed mRNA in the presence of chemical substance/The level of expressed mRNA in the absence of chemical substance (yeast gene YDR510W): 0.7
The level of expressed mRNA in the presence of chemical substance/The level of expressed mRNA in the absence of chemical substance (yeast gene YEL042W): 0.7
The level of expressed mRNA in the presence of chemical substance/The level of expressed mRNA in the absence of chemical substance (yeast gene YEL066W): 0.8
The level of expressed mRNA in the presence of chemical substance/The level of expressed mRNA in the absence of chemical substance (yeast gene YER039C): 1.5
The level of expressed mRNA in the presence of chemical substance/The level of expressed mRNA in the absence of chemical substance (yeast gene YER107C): 1.3
The level of expressed mRNA in the presence of chemical substance/The level of expressed mRNA in the absence of chemical substance (yeast gene YER130C): 1.7
The level of expressed mRNA in the presence of chemical substance/The level of expressed mRNA in the absence of chemical substance (yeast gene YFL028C): 1.7
The level of expressed mRNA in the presence of chemical substance/The level of expressed mRNA in the absence of chemical substance (yeast gene YFL043C): 1.2
The level of expressed mRNA in the presence of chemical substance/The level of expressed mRNA in the absence of chemical substance (yeast gene YGL158W): 1.0
The level of expressed mRNA in the presence of chemical substance/The level of expressed mRNA in the absence of chemical substance (yeast gene YGL229C): 1.0
The level of expressed mRNA in the presence of chemical substance/The level of expressed mRNA in the absence of chemical substance (yeast gene YGR136W): 1.2
The level of expressed mRNA in the presence of chemical substance/The level of expressed mRNA in the absence of chemical substance (yeast gene YGR189C): 0.7
The level of expressed mRNA in the presence of chemical substance/The level of expressed mRNA in the absence of chemical substance (yeast gene YGR213C): 1.2
The level of expressed mRNA in the presence of chemical substance/The level of expressed mRNA in the absence of chemical substance (yeast gene YGR257C): 1.3
The level of expressed mRNA in the presence of chemical substance/The level of expressed mRNA in the absence of chemical substance (yeast gene YHR004C): 1.5
The level of expressed mRNA in the presence of chemical substance/The level of expressed mRNA in the absence of chemical substance (yeast gene YHR071W): 1.5
The level of expressed mRNA in the presence of chemical substance/The level of expressed mRNA in the absence of chemical substance (yeast gene YHR139C): 1.3
The level of expressed mRNA in the presence of chemical substance/The level of expressed mRNA in the absence of chemical substance (yeast gene YHR142W): 1.3
The level of expressed mRNA in the presence of chemical substance/The level of expressed mRNA in the absence of chemical substance (yeast gene YIL123W): 0.6
The level of expressed mRNA in the presence of chemical substance/The level of expressed mRNA in the absence of chemical substance (yeast gene YIL140W): 0.8
The level of expressed mRNA in the presence of chemical substance/The level of expressed mRNA in the absence of chemical substance (yeast gene YJL073W): 1.2
The level of expressed mRNA in the presence of chemical substance/The level of expressed mRNA in the absence of chemical substance (yeast gene YJL089W): 1.1
The level of expressed mRNA in the presence of chemical substance/The level of expressed mRNA in the absence of chemical substance (yeast gene YJL116C): 1.3
The level of expressed mRNA in the presence of chemical substance/The level of expressed mRNA in the absence of chemical substance (yeast gene YJR004C): 1.1
The level of expressed mRNA in the presence of chemical substance/The level of expressed mRNA in the absence of chemical substance (yeast gene YJR086W): 1.3
The level of expressed mRNA in the presence of chemical substance/The level of expressed mRNA in the absence of chemical substance (yeast gene YKL008C): 0.9

Source: patent US20050112573A1, “Method of detecting toxic substance” (priority 2001, published 2005)
